This experiment relates to BDF1 mice, colon carcinoma 38 sc, T/C %. Kind of experiment: NCI In Vivo Anticancer Drug Screen. Data for tumor model Colon Carcinoma 38 (subcutaneous) in B6D2F1 (BDF1) mice. To be noted: endpoint: median tumor weight (est.), higher = larger tumour. The gist of the method:
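Ratio of survival or tumor size, compound-treated animals relative to vehicle controls, in tumor-bearing mice.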

Setting [1] is: dose: 12.5 mg/kg/injection, schedule: Q07DX002 (ip), vehicle: saline.
Setting [2] is: dose: 25.0 mg/kg/injection, schedule: Q07DX002 (ip), vehicle: saline.
Where [3] appears, read: dose: 50.0 mg/kg/injection, schedule: Q07DX002 (ip), vehicle: Klucel (hydroxypropylcellulose) (HPC).
Where [4] appears, read: dose: 100.0 mg/kg/injection, schedule: Q07DX002 (ip), vehicle: Klucel (hydroxypropylcellulose) (HPC).
The mark [5] stands for this setting: dose: 200.0 mg/kg/injection, schedule: Q07DX002 (ip), vehicle: Klucel (hydroxypropylcellulose) (HPC).
The mark [6] stands for this setting: dose: 400.0 mg/kg/injection, schedule: Q07DX002 (ip), vehicle: Klucel (hydroxypropylcellulose) (HPC).
The mark [7] stands for this setting: dose: 25.0 mg/kg/injection, schedule: Q07DX003 (ip), vehicle: Klucel (hydroxypropylcellulose) (HPC).
Setting [8] is: dose: 100.0 mg/kg/injection, schedule: Q07DX003 (ip), vehicle: Klucel (hydroxypropylcellulose) (HPC).

“And” between values parts separate entries of the source, which are not always exact repeats. Equal entries are not always repeated. Inconclusive results are not listed. *1 amine or outer side, *2 acyl side, *3 side chain or, on linkers, in order; H or OH if unused. Where a SMILES comes first, the peptide text is derived from it. Bridges are numbered along the chain shown (N, C = ends). Roman numbers before positions name the chains, in order. [ ]: non-standard residue; d: D form. Actinocin(1to9) = Cc1c2oc3c(C)ccc(C(=O)[*:2])c3nc-2c(C(=O)[*:1])c(N)c1=O; NMeV = CN[CH](C(=O)O)C(C)C; Aze = O=C(O)[CH]1CCN1; Sar = CNCC(=O)O

As to `OCC1OC(n2cnc3c(=S)nc[nH]c32)C(O)C1O` (configuration not stated), the T/C runs as follows: (dose: 12.5 mg/kg/injection, schedule: Q07DX002 (ip), vehicle: saline with Tween-80) 61 % of control; under setting [1], 90 % of control; (dose: 25.0 mg/kg/injection, schedule: Q07DX002 (ip), vehicle: saline with Tween-80) 97 % of control and 118 % of control; under setting [2], 101 % of control; (dose: 50.0 mg/kg/injection, schedule: Q07DX002 (ip), vehicle: saline with Tween-80) 77 % of control and 83 % of control and 80 % of control; (dose: 50.0 mg/kg/injection, schedule: Q07DX002 (ip), vehicle: saline) 14 % of control. Also, the T/C is, setting by setting: (dose: 100.0 mg/kg/injection, schedule: Q07DX002 (ip), vehicle: saline) 17 % of control; (dose: 200.0 mg/kg/injection, schedule: Q07DX002 (ip), vehicle: saline) 46 % of control; (dose: 400.0 mg/kg/injection, schedule: Q07DX002 (ip), vehicle: saline) 22 % of control; (dose: 800.0 mg/kg/injection, schedule: Q07DX002 (ip), vehicle: saline with Tween-80) 33 % of control and 34 % of control and 57 % of control; (dose: 1600.0 mg/kg/injection, schedule: Q07DX002 (ip), vehicle: saline with Tween-80) 28 % of control.
On to `Cc1c2oc3c(C)ccc(C(=O)NC4C(=O)NC(C(C)C)C(=O)N5CCCC5C(=O)N(C)CC(=O)N(C)C(C(C)C)C(=O)OC4C)c3nc-2c(C(=O)NC2C(=O)NC(C(C)C)C(=O)N3CCC3C(=O)N(C)CC(=O)N(C)C(C(C)C)C(=O)OC2C)c(N)c1=O` (configuration not stated) (I: TV[Aze][Sar][NMeV] / II: TVP[Sar][NMeV]; ester I:1-I:C, II:1-II:C; linker I:N-II:N via Actinocin(1to9); configuration not given here), for which the T/C (dose: 25.0 micrograms/kg/injection, schedule: Q07DX002 (ip), vehicle: saline) is 165 % of control; the T/C (dose: 37.5 micrograms/kg/injection, schedule: Q07DX002 (ip), vehicle: saline + alcohol) was 124 % of control; the T/C (dose: 50.0 micrograms/kg/injection, schedule: Q07DX002 (ip), vehicle: saline) is 80 % of control; the T/C (dose: 200.0 micrograms/kg/injection, schedule: Q07DX002 (ip), vehicle: saline) is 93 % of control; the T/C (dose: 400.0 micrograms/kg/injection, schedule: Q07DX002 (ip), vehicle: saline) was 51 % of control; the T/C (dose: 600.0 micrograms/kg/injection, schedule: Q07DX002 (ip), vehicle: saline + alcohol) was 48 % of control and 50 % of control and 73 % of control. For the same molecule, the T/C (dose: 800.0 micrograms/kg/injection, schedule: Q07DX002 (ip), vehicle: saline) was 21 % of control.
For the molecule `CC1C=NNC1=O` (configuration not stated), the T/C runs as follows: under setting [3], 84 % of control; under setting [4], 91 % of control and 96 % of control; under setting [5], 97 % of control and 98 % of control; under setting [6], 76 % of control.
For the molecule `COC(=O)C(N)CCCCNc1ccc2c(cc1=O)C(NC(C)=O)CCc1cc(OC)c(OC)c(OC)c1-2` (configuration not stated), the T/C (dose: 287.0 mg/kg/injection, schedule: Q07DX002 (ip), vehicle: saline) was 78 % of control.
Consider `C/C=C(\C)c1cc(=O)c2c(C)cc3c(c2o1)C(=O)c1c(O)c(C2CC(C)(N(C)C)C(O)C(C)O2)cc(C2CC(N(C)C)C(O)C(C)O2)c1C3=O` (configuration not stated), for which the T/C is, setting by setting: (dose: 0.62 mg/kg/injection, schedule: Q07DX002 (ip), vehicle: saline) 117 % of control; (dose: 1.25 mg/kg/injection, schedule: Q07DX002 (ip), vehicle: saline) 118 % of control; (dose: 62.5 micrograms/kg/injection, schedule: Q07DX002 (ip), vehicle: saline) 109 % of control and 103 % of control; (dose: 250.0 micrograms/kg/injection, schedule: Q07DX002 (ip), vehicle: saline) 81 % of control and 84 % of control; (dose: 500.0 micrograms/kg/injection, schedule: Q07DX002 (ip), vehicle: saline) 80 % of control and 85 % of control; (dose: 1000.0 micrograms/kg/injection, schedule: Q07DX002 (ip), vehicle: saline) 74 % of control and 95 % of control. In addition, the T/C (dose: 2000.0 micrograms/kg/injection, schedule: Q07DX002 (ip), vehicle: saline) is 100 % of control.
Take `CC(=O)Oc1ccccc1O`: the T/C (dose: 50.0 mg/kg/injection, schedule: Q07DX002 (ip), vehicle: saline + Tween-80 + alcohol) was 158 % of control.
Turning to `COC1=C(C)C(=O)C2=C(C1=O)C(CO)N1C(C#N)C3CC4C(C1C2N1CCOC41)N3C` (configuration not stated), the T/C was 67 % of control (dose: 0.25 mg/kg/injection, schedule: Q07DX002 (ip), vehicle: saline + alcohol); 109 % of control (dose: 0.5 mg/kg/injection, schedule: Q07DX002 (ip), vehicle: saline + alcohol); 153 % of control (dose: 2.0 mg/kg/injection, schedule: Q07DX002 (ip), vehicle: saline + alcohol); 87 % of control (dose: 4.0 mg/kg/injection, schedule: Q07DX002 (ip), vehicle: saline + alcohol).
Turning to `Oc1cc2c3c(c1)c1cc4c(cc1c[n+]3CC2)OCO4`, the T/C was 102 % of control (dose: 3.12 mg/kg/injection, schedule: Q07DX002 (ip), vehicle: water); 77 % of control and 95 % of control (dose: 6.25 mg/kg/injection, schedule: Q07DX002 (ip), vehicle: water); 71 % of control (dose: 25.0 mg/kg/injection, schedule: Q07DX002 (ip), vehicle: water); 67 % of control and 71 % of control (dose: 50.0 mg/kg/injection, schedule: Q07DX002 (ip), vehicle: water).
For `CC(=O)OCC1OC([S-])C(OC(C)=O)C(OC(C)=O)C1OC(C)=O.CC[PH+](CC)CC.CC[PH+](CC)CC.[Au].[Au]` (configuration not stated), the T/C runs as follows: (dose: 2.5 mg/kg/injection, schedule: Q07DX002 (ip), vehicle: Klucel (hydroxypropylcellulose) (HPC)) 99 % of control; (dose: 10.0 mg/kg/injection, schedule: Q07DX002 (ip), vehicle: Klucel (hydroxypropylcellulose) (HPC)) 89 % of control and 93 % of control.
With `COC(=O)Nc1nc2ccc(C3(c4ccc(F)cc4)OCCO3)cc2[nH]1`, the T/C runs as follows: under setting [1], 111 % of control and 90 % of control; under setting [2], 70 % of control and 87 % of control.
For the molecule `NC(CCl)=NCC12CC3CC(CC(C3)C1)C2`, the T/C is 72 % of control (dose: 6.25 mg/kg/injection, schedule: Q07DX003 (ip), vehicle: Klucel (hydroxypropylcellulose) (HPC)); 39 % of control under setting [7]; 94 % of control under setting [8].
For the molecule `Cc1ccc(NCC2(/N=C/c3ccccc3)OC(CO)C(O)C2O)cc1` (configuration not stated), the T/C reads like this: (dose: 12.5 mg/kg/injection, schedule: Q07DX003 (ip), vehicle: Klucel (hydroxypropylcellulose) (HPC)) 110 % of control; under setting [7], 69 % of control; (dose: 50.0 mg/kg/injection, schedule: Q07DX003 (ip), vehicle: Klucel (hydroxypropylcellulose) (HPC)) 117 % of control; under setting [8], 106 % of control; (dose: 200.0 mg/kg/injection, schedule: Q07DX003 (ip), vehicle: Klucel (hydroxypropylcellulose) (HPC)) 59 % of control.
For the molecule `O=C1CC2(C(=O)N1CN1CCCCC1)c1ccccc1-c1ccccc12`, the T/C was 58 % of control (dose: 12.5 mg/kg/injection, schedule: Q07DX002 (ip), vehicle: Klucel (hydroxypropylcellulose) (HPC)); 97 % of control (dose: 25.0 mg/kg/injection, schedule: Q07DX002 (ip), vehicle: Klucel (hydroxypropylcellulose) (HPC)); 68 % of control under setting [3]; 102 % of control under setting [4]; 101 % of control under setting [5]; 81 % of control under setting [6].
As for `N=[N+]=CC(=O)CCC(NC(=O)C(CCC(=O)C=[N+]=N)NC(=O)CCC(N)C(=O)O)C(=O)O` (configuration not stated), the T/C reads like this: (dose: 3.12 mg/kg/injection, schedule: Q07DX003 (ip), vehicle: clinical formulation) 54 % of control; (dose: 3.12 mg/kg/injection, schedule: Q07DX003 (ip), vehicle: water) 52 % of control; (dose: 6.25 mg/kg/injection, schedule: Q07DX003 (ip), vehicle: clinical formulation) 62 % of control; (dose: 6.25 mg/kg/injection, schedule: Q07DX003 (ip), vehicle: water) 48 % of control; (dose: 12.5 mg/kg/injection, schedule: Q07DX003 (ip), vehicle: clinical formulation) 46 % of control; (dose: 12.5 mg/kg/injection, schedule: Q07DX003 (ip), vehicle: water) 32 % of control. The T/C was 40 % of control (dose: 25.0 mg/kg/injection, schedule: Q07DX003 (ip), vehicle: clinical formulation); 44 % of control (dose: 25.0 mg/kg/injection, schedule: Q07DX003 (ip), vehicle: water); 18 % of control (dose: 50.0 mg/kg/injection, schedule: Q07DX003 (ip), vehicle: clinical formulation); 12 % of control (dose: 50.0 mg/kg/injection, schedule: Q07DX003 (ip), vehicle: water).

The values above are taken from PubChem BioAssay AID212 (DTP/NCI, 2004).
